Assays:
Calpain I = target: T1, Calpain I (Homo sapiens, UniProt P07384); test: Inhibition and rate of inactivation of calpain I (Succ-Leu-Tyr-MNA hydrolysis); format: biochemical; conditions: mean of three or more independent analyses, corrected for substrate, k2 = kapp(1+[S]/Km), read-out: k2 (second order rate constant of inactivation), A = Calpain I
T1 construct: Calpain I was purified from human red blood cells; from tissue; host or cells: human red blood cells (packed, outdated)
T1 sequence (P07384 1-714): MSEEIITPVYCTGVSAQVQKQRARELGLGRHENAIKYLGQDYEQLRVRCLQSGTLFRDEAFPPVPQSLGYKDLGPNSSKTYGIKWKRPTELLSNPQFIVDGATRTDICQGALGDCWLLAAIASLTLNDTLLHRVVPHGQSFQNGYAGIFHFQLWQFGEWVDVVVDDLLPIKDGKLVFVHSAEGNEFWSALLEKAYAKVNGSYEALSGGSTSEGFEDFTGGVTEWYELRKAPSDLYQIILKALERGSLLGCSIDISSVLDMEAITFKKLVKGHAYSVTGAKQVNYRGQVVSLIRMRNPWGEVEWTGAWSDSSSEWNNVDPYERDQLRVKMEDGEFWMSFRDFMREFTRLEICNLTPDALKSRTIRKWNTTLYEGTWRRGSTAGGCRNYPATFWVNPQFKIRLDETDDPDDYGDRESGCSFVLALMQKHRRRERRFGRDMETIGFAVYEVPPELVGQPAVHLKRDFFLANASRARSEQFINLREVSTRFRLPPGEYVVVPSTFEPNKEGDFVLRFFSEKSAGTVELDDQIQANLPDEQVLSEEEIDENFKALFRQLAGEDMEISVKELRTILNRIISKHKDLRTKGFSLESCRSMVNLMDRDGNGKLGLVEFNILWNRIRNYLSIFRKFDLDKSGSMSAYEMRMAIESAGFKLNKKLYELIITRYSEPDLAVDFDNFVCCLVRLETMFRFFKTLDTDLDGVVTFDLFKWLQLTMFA
T1 sequence (P04632 1-268 partner): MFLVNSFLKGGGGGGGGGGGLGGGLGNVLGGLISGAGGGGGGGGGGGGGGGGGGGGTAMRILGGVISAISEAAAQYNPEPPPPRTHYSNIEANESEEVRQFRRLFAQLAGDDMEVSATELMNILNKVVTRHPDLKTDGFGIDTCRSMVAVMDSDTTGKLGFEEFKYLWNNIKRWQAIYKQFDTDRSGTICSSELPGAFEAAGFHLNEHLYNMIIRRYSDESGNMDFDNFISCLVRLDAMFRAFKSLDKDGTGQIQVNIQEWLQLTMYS
Method: To evaluate inhibitory activity of our compounds, stocks (40 times concentrated) of each compound to be tested were prepared in 100% anhydrous dimethyl sulfoxide (DMSO) and 5 μl of each inhibitor preparation was aliquoted into each of three wells of a 96 well plate. Calpain I was purified from human red blood cells using a modification of the method described by Lee, W. J. et al. (Biochem. Internatl. (1990)22(1): 163-171). Briefly, 3 units of packed outdated red blood cells were washed 3× by repeated centrifugation at 500 rpm for 10 minutes through 900 mls of 0.9% NaCl. Cells were lysed in 20 mM Tris/1 mM EDTA/1 mM EGTA/5 mM mercaptoethanol (Buffer A) and centrifuged for 1 hour at 12,000 rpm in a GSA rotor using a Sorval centrifuge. The supernatant was collected and applied to a DEAE-sepharose FF column equilibrated in Buffer A+25 mM NaCl. After washing the column in Buffer A+25 mM NaCl, the bound protein was eluted at 117 ml/hr with a 25 mM to 150 mM NaCl linear gradient in Buffer A collecting 200, 10 mL fractions. Two μl of every fifth fraction was applied to nitrocelluose using a dot blot apparatus and calpain containing fractions identified by Western analysis. For detection of calpain, nitrocellulose sheets were first blocked in 5% Blotto (5% Carnation instant milk/10 mM Tris/[…]150 mM NaCl) for 30 minutes, followed by incubation for 1 hour in antibody directed against Calpain I (rabbit anti-human calpain I polyclonal sera, 1:1000 dilution in 5% Blotto). After three 5 minutes washes in 10 mM Tris/150 mM NaCl/0.05% Tween 20 the nitrocellulose was incubated for 1 hour in secondary alkaline phosphatase conjugated antibody (Biorad Cat#170-6518 1:2000 in 5% Blotto). After three 5 minutes washes in 10 mM Tris/150 mM NaCl/0.05% Tween 20 and 1 wash in 10 mM Tris/150 mM NaCl the nitrocellulose was incubated for up to 2 hours in a colorimetric substrate solution (Biorad Alkaline Phosphatase Substrate conjugate kit, cat#170-6432). The reaction was stopped by washing in water. After fractions containing calpain, and those in between, were pooled, solid ammonium sulfate was added to achieve a 30% solution and the mixture stirred for 1 hour at 4° C. Following collection of the precipitate by centrifugation for 1 hour at 4° C. at 12K rpm in a GSA rotor, the supernatant was collected and brought to 45% in ammonium sulfate. After stirring for 1 hour at 4° C., centrifugation was repeated. The supernatant was discarded and the precipitate resuspended in approximately 7 mls and dialyzed overnight at 4° C. against Buffer A+50 mM NaCl. The sample was then applied to a S300 gel filtration column preequilibrated in Buffer A+50 mM NaCl, washed and eluted at a flow rate of 20 ml/hr, collecting 200, 4 ml fractions. The peak of calpain was determined by assaying aliquots of every fifth fraction for enzyme activity monitored by the hydrolysis of a fluorogenic dipeptide substrate as described below. The peak fractions were pooled and the enzyme preparation used to test compounds for inhibitory activity. As an alternate to enzyme isolated from tissue sources, recombinant human calpain I has also been used to monitor compounds for inhibitory activity.
The foregoing enzyme preparation was diluted into assay buffer (i.e., 50 mM Tris, 50 mM NaCl, 1 mM EDTA, 1 mM EGTA, and 5 mM β-mercaptoethanol, pH 7.5 including 0.2 mM Succ-Leu-Tyr-MNA) and 175 μl aliquoted into the same wells containing the independent inhibitor stocks as well as to positive control wells containing 5 μl DMSO, but no compound. To start the reaction, 20 μl of 50 mM CaCl2 in assay buffer was added to all wells of the plate, excepting three, which were used as background signal baseline controls. Substrate hydrolysis was monitored every 5 minutes for a total of 30 minutes using Flouroskan II (ex=340 nm; em=430 nm). Substrate hydrolysis in the absence of inhibitor was linear for up to 15 minutes. […]

α-chymotrypsin = target: T2, α-chymotrypsin (Bos taurus, UniProt P00766); test: Inhibition of the serine protease α-chymotrypsin (Succ-Ala-Ala-Pro-Phe-AMC hydrolysis); format: biochemical; conditions: pH 7.5, 0.03 mM substrate
T2 construct: purchased Sigma Chem. Co. C-3142
Method: Additionally,because α-chymotrypsin is not a calcium sensitive enzyme and is constituitively active, following addition of inhibitor stocks to the 96 well plates, 100 ul of a 2 fold concentrated stock of enzyme in dilution buffer was first added and the reaction started by addition of 100 ul of a 2 fold concentrated stock of substrate in assay buffer. Substrate hydrolysis was monitored every 5 minutes up to 30 minutes using a Fluoroskan II ([…]).

[1] = tested on: calpain I in Molt-4 cells (α-spectrin breakdown products); test: Inhibition of calpain activation in intact Molt-4 cells (calpain-generated spectrin breakdown products); format: cell-based; conditions: Homo sapiens, calcium and ionophore (ionomycin), read-out: % Inhibition of BDPs (10 μM)
Cathepsin B = target: T3, Cathepsin B (Homo sapiens, UniProt P07858); test: Inhibition and rate of inactivation of cathepsin B (Cbz-Phe-Arg-AMC hydrolysis); format: biochemical; conditions: pH 6.0, 0.1 mM substrate, read-out: k2 (second order rate constant of inactivation), C = Cathepsin B
T3 construct: purchased Calbiochem 219364
Method: Additionally, the order of reagents added to the plate was altered because both enzymes are constitutively active. Following inhibitor addition to the plates appropriate 2× concentrated stock dilutions of the enzyme preparations were made in assay buffer and 100 ul added to each well. The assay was initiated by addition of 100 ul of 2× concentrated stock dilution of substrate in assay buffer. Substrate hydrolysis was monitored using a Fluroskan II (ex=390 nm; em=460 nm).
Inhibition of enzyme activity was calculated as the percent decrease in the rate of substrate hydrolysis in the presence of inhibitor (.upsilon.i) relative to the rate in its absence (.upsilon.o). Comparison between .upsilon.o and .upsilon.i was made within the linear range for substrate hydrolysis. For screening, compounds were tested at 10 μM. Compounds having ≥50% inhibition at 10 μM were considered active. Apparent second order rate constants were determined from analysis of reaction progress curves under pseudo-first order conditions. Each determination represents the mean of three or more independent single cuvette analyses continually monitored via a Perkin-Elmer LS50B spectrofluorimeter. The rate of inhibition of hydrolysis was obtained by fitting the curve to the exponential equation (1):
y=Ae^-k.spsb.obs·t +B (1)
where y (Pt) is the product formed at time t. A and B are constants. A, the amplitude of the reaction, is given by [Po -P.varies. ] and B (=P.varies.) is the maximal product formed when the reaction is […]. This was corrected for the presence of equation (2): […]

| Structure (SMILES) | kinact/KI (Calpain I) [M⁻¹ s⁻¹] | inhibition at 10 µM (α-chymotrypsin) [%] | kinact/KI (Cathepsin B) [M⁻¹ s⁻¹] | inhibition at 10 µM [1] [%] |
| --- | --- | --- | --- | --- |
| CC(C)C[C@H](NC(=O)OCc1ccccc1)C(=O)N[C@@H](Cc1ccccc1)C(=O)COn1nnc2ccc(C(F)(F)F)cc21 [Example 7, 1-[N-[N-Benzyloxycarbonyl-L-leucyl]-3S-4-phenyl-3-amino-2-oxobutyloxy]-6'-trifluoromethylbenzotriazole] | 160000 | 99 | 18000 | – |
| CC(C)C[C@H](NC(=O)[C@H](CC(C)C)NC(=O)OCc1ccccc1)C(=O)COn1nnc2ccccc21 [Example 4, 1-[N-[N-Benzyloxycarbonyl-L-leucyl]-3S-5-methyl-3-amino-2-oxohexyloxy]benzotriazole] | 175000 | – | 19000 | 57 |
| CC(C)CC(CC(=O)C1c2ccccc2Oc2ccccc21)C(=O)N[C@@H](CC(C)C)C(=O)COn1nnc2ccccc21 (stereo partly shown) [Example 40] | 2700 | 100 | 48000 | – |
| CC(C)C[C@H](NC(=O)OCc1ccccc1)C(=O)N[C@@H](Cc1ccccc1)C(=O)COn1nnc2ccc(Cl)cc21 [Example 8, 1-[N-[N-Benzyloxycarbonyl-L-leucyl]-3S-4-phenyl-3-amino-2-oxybutyloxy]-6'-chlorobenzotriazole] | 101000 | – | – | 57 |
| CC(C)C[C@H](NC(=O)OCc1ccccc1)C(=O)N[C@@H](Cc1ccccc1)C(=O)COn1nnc2ccc(F)cc21 [Example 10, 1-[N-[N-Benzyloxycarbonyl-L-leucyl]-3S-4-phenyl-3-amino-2-oxobutyloxy]-6'-fluorobenzotriazole] | 50000 | 89 | – | – |

The next lines start with results.

| kinact/KI (Calpain I) [M⁻¹ s⁻¹] | inhibition at 10 µM (α-chymotrypsin) [%] | kinact/KI (Cathepsin B) [M⁻¹ s⁻¹] | Structure (SMILES) | inhibition at 10 µM [1] [%] |
| --- | --- | --- | --- | --- |
| 46000 | 94 | – | Cc1cccc2c1nnn2OCC(=O)[C@H](Cc1ccccc1)NC(=O)[C@H](CC(C)C)NC(=O)OCc1ccccc1 [Example 12, 1-[N-[N-Benzyloxycarbonyl-L-leucyl]-3S-4-phenyl-3-amino-2-oxobutyloxy]-4'-methylbenzotriazole] | – |
| 67000 | – | 300000 | CC(C)C[C@H](NC(=O)OCc1ccccc1)C(=O)N[C@@H](Cc1ccccc1)C(=O)COn1nnc2c(F)c(F)ccc21 [Example 25, 1-[N-[N-Benzyloxycarbonyl-L-leucyl]-3S-4-phenyl-3-amino-2-oxybutyloxy]-4',5'-difluorobenzotriazole] | 52 |
| 125000 | 83 | 52000 | COc1ccc2nnn(OCC(=O)[C@H](Cc3ccccc3)NC(=O)[C@H](CC(C)C)NC(=O)OCc3ccccc3)c2c1 [Example 9, 1-[N-[N-Benzyloxycarbonyl-L-leucyl]-3S-4-phenyl-3-amino-2-oxobutyloxy]-6'-methoxybenzotriazole] | – |
| 93000 | – | – | CC(C)C[C@H](NC(=O)OCc1ccccc1)C(=O)N[C@@H](Cc1ccccc1)C(=O)COn1nnc2c(F)c(F)c(F)c(F)c21 [Example 16, 1-[N-[N-Benzyloxycarbonyl-L-leucyl]-3S-4-phenyl-3-amino-2-oxybutyloxy]-4',5',6',7'-tetrafluorobenzotriazole] | 64 |
| 57000 | – | – | CC(C)C[C@H](NC(=O)OCc1ccccc1)C(=O)N[C@@H](Cc1ccccc1)C(=O)COn1nnc2ncccc21 [Example 19, 1-[N-[N-Benzyloxycarbonyl-L-leucyl]-3S-4-phenyl-3-amino-2-oxybutyloxy]-(1H)-triazolo[4,5-b]pyridine] | 54 |
| 98000 | 100 | 28000 | Cc1cc2nnn(OCC(=O)[C@H](Cc3ccccc3)NC(=O)[C@H](CC(C)C)NC(=O)OCc3ccccc3)c2cc1Cl [Example 11, 1-[N-[N-Benzyloxycarbonyl-L-leucyl]-3S-4-phenyl-3-amino-2-oxobutyloxy]-6'-chloro-5'-methylbenzotriazole] | – |
| 46000 | 100 | 55000 | CC(C)CC(CC(=O)C1c2ccccc2Oc2ccccc21)C(=O)N[C@@H](Cc1ccccc1)C(=O)COn1nnc2ccccc21 (stereo partly drawn) [Example 39, 1-[N-[2-(2-Methylpropyl)-1,4-dioxo-4-(xanthen-9-yl)butyl]-3S-3-amino-2-oxo-4-phenylbutyloxy]benzotriazole] | – |

— patent US5658906A, “Cysteine protease and serine protease inhibitors” (Cephalon, Inc., priority 1996, dated 1997)
